Source: ChEMBL document CHEMBL1154323, “Bioactive scalaranes from the Thai sponge Hyrtios gumminae” (J Nat Prod, 2009)
Calls of active or inactive are those of the source. The calls are words filed in the database; no cut-off is given here.

Assays:
Format in all cases: functional, cell-based
HuCC-A1 = assay: Cytotoxicity against human HuCCa1 cells at >100 uM
MDA-MB-231 [1] = assay: Cytotoxicity against human MDA-MB-231 cells >100 uM
T47D [2] = assay: Cytotoxicity against human T47D cells >100 uM
NCI-H69 [3] = assay: Cytotoxicity against human adriamycin resistant H69 cells >100 uM
KB [4] = assay: Cytotoxicity against human KB cells >100 uM
HeLa [5] = assay: Cytotoxicity against human HeLa cells >100 uM
[6] = Cytotoxicity against human HuCCa1 cells; details: HuCC-A1
NCI-H69 [7] = assay: Cytotoxicity against human adriamycin resistant H69 cells
T47D [8] = assay: Cytotoxicity against human T47D cells
HeLa [9] = assay: Cytotoxicity against human HeLa cells
KB [10] = assay: Cytotoxicity against human KB cells
MDA-MB-231 [11] = assay: Cytotoxicity against human MDA-MB-231 cells

| SMILES | Activity (HuCC-A1) | Activity (MDA-MB-231 [1]) | Activity (T47D [2]) | Activity (NCI-H69 [3]) | Activity (KB [4]) | Activity (HeLa [5]) | IC50 [6] | IC50 (NCI-H69 [7]) | IC50 (T47D [8]) | IC50 (HeLa [9]) | IC50 (KB [10]) | IC50 (MDA-MB-231 [11]) |
| --- | --- | --- | --- | --- | --- | --- | --- | --- | --- | --- | --- | --- |
| CC(C)CCC[C@@H](C)[C@H]1CC[C@H]2[C@@H]3CC=C4C[C@@H](O)CC[C@]4(C)[C@H]3CC[C@]12C | inactive | inactive | inactive | inactive | inactive | inactive | – | – | – | – | – | – |
| CO[C@@H]1c2occc2[C@@H](O)C[C@H]2[C@]3(C)CC[C@H]4C(C)(C)CCC[C@]4(C)[C@H]3C[C@@]21C [SIMILAN A] | – | – | – | – | – | – | 90 µM | > 125 µM | 70 µM | 125 µM | 75 µM | 58 µM |
| CC1(C)CCC[C@]2(C)[C@H]3C[C@@H](O)[C@]4(C)C5=C(CC[C@H]4[C@]3(C)CC[C@@H]12)COC5=O | inactive | inactive | inactive | inactive | inactive | inactive | – | – | – | – | – | – |
| COc1cc([C@@H]2c3cc4c(cc3[C@@H](O[C@@H]3O[C@@H]5CO[C@@H](C)O[C@H]5[C@H](O)[C@H]3O)[C@H]3COC(=O)[C@H]23)OCO4)cc(OC)c1O [ETOPOSIDE] | – | – | – | – | – | – | 5.1 µM | 46 µM | 0.1 µM | 0.4 µM | 0.5 µM | 0.3 µM |
| CC1(C)CCC[C@]2(C)[C@H]3C[C@](C)(C=O)[C@@H](C[C@H](O)c4ccoc4)[C@]3(C)CC[C@@H]12 [HYRTIOSAL] | – | – | – | – | – | – | 9.1 µM | 31 µM | 9.1 µM | 18 µM | 7.8 µM | 5.4 µM |
| CC1(C)CCC[C@]2(C)[C@H]3C[C@@H](O)[C@]4(C)C5=C(C(=O)O[C@H]5O)[C@H](O)C[C@H]4[C@]3(C)CC[C@@H]12 [HYRTIOLIDE] | – | – | – | – | – | – | 57 µM | – | 34 µM | 22 µM | 12 µM | 26 µM |
| CC(=O)O[C@H]1C[C@H]2[C@]3(C)CC[C@H]4C(C)(C)CCC[C@]4(C)[C@H]3C[C@@H](O)[C@]2(C)c2cocc21 [SCALARAFURAN] | – | – | – | – | – | – | 49 µM | 51 µM | 28 µM | 63 µM | 58 µM | 14 µM |
| CC1(C)CCC[C@]2(C)[C@H]3C[C@@H](O)[C@]4(C)[C@H]5COC(=O)C5=CC[C@H]4[C@]3(C)CC[C@@H]12 | – | – | – | – | – | – | 42 µM | 57 µM | 5.2 µM | 23 µM | 7 µM | 5.9 µM |
